Laboratory results from patent US9187472B2 (AbbVie Inc., priority 2012, dated 2015).

Legend:
NAMPT = NAMPT (Homo sapiens, UniProt P43490); experiment: TR-FRET Binding Assay of NAMPT with PRPP; details: with 200 μM PRPP and 2.5 mM ATP; 2 nM NAMPT, 2 nM probe, 16 hours equilibration
Outline: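 Compounds were mixed with 2 nM His-tagged NAMPT, 2 nM probe, 1 nM terbium anti-His antibody, 200 μM PRPP and 2.5 mM ATP in assay buffer with 2% DMSO, then left 16 hours to permit possible enzymatic processing of compounds before time-resolved FRET was measured.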

PC3 cells = experiment: NAMPT Cell Proliferation Assay; format: cell-based; details: Homo sapiens, PC-3, 120 h, 5 days incubation, cell viability by Cell Titer Glo
Outline: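 Seed PC3 at 500 cells/well (RPMI, 10% HI-FBS), attach overnight; add compound, 10-fold series 10 μM → 1×10^−5 μM; incubate 5 d, 37° C/5% CO2; luminescent viability readout; fit % inhibition sigmoidally for IC50.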

[1] = molecular target: NAMPT (human, recombinant, C-terminally His-tagged) (Homo sapiens, UniProt P43490); experiment: Time-Resolved Fluorescence Resonance Energy Transfer (TR-FRET) Binding Assay of NAMPT; details: without substrates; 6.8 nM NAMPT, 200 nM probe, 3 hours equilibration
Sequence of NAMPT (human, recombinant, C-terminally His-tagged) (P43490 whole entry): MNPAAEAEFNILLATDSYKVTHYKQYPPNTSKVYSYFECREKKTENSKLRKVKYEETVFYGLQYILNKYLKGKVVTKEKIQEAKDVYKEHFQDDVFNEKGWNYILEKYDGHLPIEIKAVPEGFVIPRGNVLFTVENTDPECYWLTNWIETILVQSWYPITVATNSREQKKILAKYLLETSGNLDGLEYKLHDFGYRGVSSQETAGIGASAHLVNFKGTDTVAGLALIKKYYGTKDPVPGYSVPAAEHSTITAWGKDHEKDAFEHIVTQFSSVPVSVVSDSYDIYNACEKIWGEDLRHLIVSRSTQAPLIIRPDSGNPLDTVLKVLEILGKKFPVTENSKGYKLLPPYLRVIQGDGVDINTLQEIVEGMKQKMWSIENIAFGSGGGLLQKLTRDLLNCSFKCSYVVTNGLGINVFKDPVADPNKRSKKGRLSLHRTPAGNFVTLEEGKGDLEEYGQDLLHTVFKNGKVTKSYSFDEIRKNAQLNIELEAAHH
Outline: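 Compounds, diluted in half-log steps, are mixed with enzyme (6.8 nM), fluorescent probe (200 nM) and Tb-anti-His antibody (1 nM) in pH 7.5 HEPES buffer containing 10 mM MgCl2 and 1 mM DTT. Plates equilibrate 3 h at room temperature; normalized FRET ratios are fitted by four-parameter logistic regression for IC50.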

Sequence of NAMPT (P43490 whole entry): as above

| IC50 (NAMPT) | IC50 (PC3 cells) | IC50 [1] | Structure (SMILES) |
| --- | --- | --- | --- |
| 3.05 nM | 18.2 nM | 1430 nM | COCCC(=O)N(CC1CCOCC1)c1ncc(C(=O)NCc2ccc3nccn3c2)s1 [Example 142, N-(imidazo[1,2-a]pyridin-6-ylmethyl)-2-[(3-methoxypropanoyl)(tetrahydro-2H-pyran-4-ylmethyl)amino]-1,3-thiazole-5-carboxamide] |
| 2.03 nM | 80.8 nM | 8710 nM | O=C(NCc1ccc2nccn2c1)c1cnc(N(CC2CCOCC2)C(=O)C2CCOC2)s1 (stereo not drawn) [Example 143, N-(imidazo[1,2-a]pyridin-6-ylmethyl)-2-[(tetrahydrofuran-3-ylcarbonyl)(tetrahydro-2H-pyran-4-ylmethyl)amino]-1,3-thiazole-5-carboxamide] |
| 2.92 nM | 187 nM | 9490 nM | O=C(NCc1ccc2nccn2c1)c1cnc(N(CC2CCOCC2)C(=O)C2CCOCC2)s1 [Example 144, N-(imidazo[1,2-a]pyridin-6-ylmethyl)-2-[(tetrahydro-2H-pyran-4-ylcarbonyl)(tetrahydro-2H-pyran-4-ylmethyl)amino]-1,3-thiazole-5-carboxamide] |
| 1.08 nM | 6.01 nM | 191 nM | COCCC(=O)N(C[C@H]1CCCO1)c1ncc(C(=O)NCc2ccc3nccn3c2)s1 [Example 145, N-(imidazo[1,2-a]pyridin-6-ylmethyl)-2-{(3-methoxypropanoyl)[(2R)-tetrahydrofuran-2-ylmethyl]amino}-1,3-thiazole-5-carboxamide] |
| 0.403 nM | 7.69 nM | 261 nM | O=C(NCc1ccc2nccn2c1)c1cnc(N(C[C@H]2CCCO2)C(=O)C2CCOC2)s1 (stereo partly drawn) [Example 146, N-(imidazo[1,2-a]pyridin-6-ylmethyl)-2-{(tetrahydrofuran-3-ylcarbonyl)[(2R)-tetrahydrofuran-2-ylmethyl]amino}-1,3-thiazole-5-carboxamide] |
| 0.63 nM | 6.69 nM | 251 nM | O=C(NCc1ccc2nccn2c1)c1cnc(N(C[C@H]2CCCO2)C(=O)C2CCOCC2)s1 [Example 147, N-(imidazo[1,2-a]pyridin-6-ylmethyl)-2-{[(2R)-tetrahydrofuran-2-ylmethyl](tetrahydro-2H-pyran-4-ylcarbonyl)amino}-1,3-thiazole-5-carboxamide] |
| 1.35 nM | 41.5 nM | 6230 nM | COCCC(=O)N(C[C@@H]1CCCO1)c1ncc(C(=O)NCc2ccc3nccn3c2)s1 [Example 148, N-(imidazo[1,2-a]pyridin-6-ylmethyl)-2-{(3-methoxypropanoyl)[(2S)-tetrahydrofuran-2-ylmethyl]amino}-1,3-thiazole-5-carboxamide] |
| 4.86 nM | 26.6 nM | > 10000 nM | O=C(NCc1ccc2nccn2c1)c1cnc(N(C[C@@H]2CCCO2)C(=O)C2CCOC2)s1 (stereo partly drawn) [Example 149, N-(imidazo[1,2-a]pyridin-6-ylmethyl)-2-{(tetrahydrofuran-3-ylcarbonyl)[(2S)-tetrahydrofuran-2-ylmethyl]amino}-1,3-thiazole-5-carboxamide] |
| 3.49 nM | 36.2 nM | 6110 nM | O=C(NCc1ccc2nccn2c1)c1cnc(N(C[C@@H]2CCCO2)C(=O)C2CCOCC2)s1 [Example 150, N-(imidazo[1,2-a]pyridin-6-ylmethyl)-2-{[(2S)-tetrahydrofuran-2-ylmethyl](tetrahydro-2H-pyran-4-ylcarbonyl)amino}-1,3-thiazole-5-carboxamide] |
| 5.54 nM | 76.1 nM | 7150 nM | COCCNC(=O)N(CC1CCOCC1)c1ncc(C(=O)NCc2ccc3nccn3c2)s1 [Example 151, N-(imidazo[1,2-a]pyridin-6-ylmethyl)-2-{[(2-methoxyethyl)carbamoyl](tetrahydro-2H-pyran-4-ylmethyl)amino}-1,3-thiazole-5-carboxamide] |
| 6.91 nM | 28.3 nM | 3600 nM | CC(C)OCCNC(=O)N(CC1CCOCC1)c1ncc(C(=O)NCc2ccc3nccn3c2)s1 [Example 152, N-(imidazo[1,2-a]pyridin-6-ylmethyl)-2-[{[2-(propan-2-yloxy)ethyl]carbamoyl}(tetrahydro-2H-pyran-4-ylmethyl)amino]-1,3-thiazole-5-carboxamide] |
| 1.88 nM | 3.73 nM | 118 nM | COCCNC(=O)N(C[C@H]1CCCO1)c1ncc(C(=O)NCc2ccc3nccn3c2)s1 [Example 153, N-(imidazo[1,2-a]pyridin-6-ylmethyl)-2-{[(2-methoxyethyl)carbamoyl][(2R)-tetrahydrofuran-2-ylmethyl]amino}-1,3-thiazole-5-carboxamide] |
| 2.6 nM | 6.67 nM | 194 nM | CC(C)OCCNC(=O)N(C[C@H]1CCCO1)c1ncc(C(=O)NCc2ccc3nccn3c2)s1 [Example 154, N-(imidazo[1,2-a]pyridin-6-ylmethyl)-2-({[2-(propan-2-yloxy)ethyl]carbamoyl}[(2R)-tetrahydrofuran-2-ylmethyl]amino)-1,3-thiazole-5-carboxamide] |
| 2.3 nM | 17.6 nM | 3370 nM | COCCNC(=O)N(C[C@@H]1CCCO1)c1ncc(C(=O)NCc2ccc3nccn3c2)s1 [Example 155, N-(imidazo[1,2-a]pyridin-6-ylmethyl)-2-{[(2-methoxyethyl)carbamoyl][(2S)-tetrahydrofuran-2-ylmethyl]amino}-1,3-thiazole-5-carboxamide] |
| 3.18 nM | 28 nM | 3270 nM | CC(C)OCCNC(=O)N(C[C@@H]1CCCO1)c1ncc(C(=O)NCc2ccc3nccn3c2)s1 [Example 156, N-(imidazo[1,2-a]pyridin-6-ylmethyl)-2-({[2-(propan-2-yloxy)ethyl]carbamoyl}[(2S)-tetrahydrofuran-2-ylmethyl]amino)-1,3-thiazole-5-carboxamide] |
| 1.1 nM | 29.2 nM | 4140 nM | CC(C)OCCNC(=O)N(CC1CCOC1)c1ncc(C(=O)NCc2ccc3nccn3c2)s1 (stereo not drawn) [Example 157, N-(imidazo[1,2-a]pyridin-6-ylmethyl)-2-[{[2-(propan-2-yloxy)ethyl]carbamoyl}(tetrahydrofuran-3-ylmethyl)amino]-1,3-thiazole-5-carboxamide] |
| 6.39 nM | 191 nM | 341 nM | O=C(NCc1ccc2nccn2c1)c1cnc(N2CC(c3ccc(Cl)cc3)OC2=O)s1 (stereo not drawn) [Example 158, 2-[5-(4-chlorophenyl)-2-oxo-1,3-oxazolidin-3-yl]-N-(imidazo[1,2-a]pyridin-6-ylmethyl)-1,3-thiazole-5-carboxamide] |
| 2.16 nM | 233 nM | 2490 nM | CC(C)C(=O)N1CCC(Oc2ccc(C(=O)NCc3ccc4nccn4c3)cc2)CC1 [Example 159, N-(imidazo[1,2-a]pyridin-6-ylmethyl)-4-{[1-(2-methylpropanoyl)piperidin-4-yl]oxy}benzamide] |
| 1.26 nM | 915 nM | 3220 nM | CC(=O)N1CCC(Oc2ccc(C(=O)NCc3ccc4nccn4c3)cc2)CC1 [Example 160, 4-[(1-acetylpiperidin-4-yl)oxy]-N-(imidazo[1,2-a]pyridin-6-ylmethyl)benzamide] |
| 2.89 nM | 635 nM | 1310 nM | O=C(NCc1ccc2nccn2c1)c1ccc(OC2CCN(C(=O)C3CC3)CC2)cc1 [Example 161, 4-{[1-(cyclopropylcarbonyl)piperidin-4-yl]oxy}-N-(imidazo[1,2-a]pyridin-6-ylmethyl)benzamide] |
| 2.09 nM | 43.6 nM | 2570 nM | O=C(NCc1ccc2nccn2c1)c1ccc(OC2CCN(C(=O)C3CCOCC3)CC2)cc1 [Example 162, N-(imidazo[1,2-a]pyridin-6-ylmethyl)-4-{[1-(tetrahydro-2H-pyran-4-ylcarbonyl)piperidin-4-yl]oxy}benzamide] |
| 6.29 nM | 96.4 nM | 2100 nM | O=C(NCc1ccc2nccn2c1)c1ccc(OC2CCN(C(=O)C3COCCO3)CC2)cc1 (stereo not drawn) [Example 163, 4-{[1-(1,4-dioxan-2-ylcarbonyl)piperidin-4-yl]oxy}-N-(imidazo[1,2-a]pyridin-6-ylmethyl)benzamide] |
| 3.46 nM | 101 nM | 2460 nM | O=C(NCc1ccc2nccn2c1)c1ccc(OC2CCN(C(=O)[C@@H]3CCCO3)CC2)cc1 [Example 164, N-(imidazo[1,2-a]pyridin-6-ylmethyl)-4-({1-[(2S)-tetrahydrofuran-2-ylcarbonyl]piperidin-4-yl}oxy)benzamide] |
| 1.61 nM | 137 nM | 1530 nM | O=C(NCc1ccc2nccn2c1)c1ccc(OC2CCN(C(=O)[C@H]3CCCO3)CC2)cc1 [Example 165, N-(imidazo[1,2-a]pyridin-6-ylmethyl)-4-({1-[(2R)-tetrahydrofuran-2-ylcarbonyl]piperidin-4-yl}oxy)benzamide] |
| 1.81 nM | 97.1 nM | 1430 nM | CC(C)(O)C(=O)N1CCC(Oc2ccc(C(=O)NCc3ccc4nccn4c3)cc2)CC1 [Example 166, 4-{[1-(2-hydroxy-2-methylpropanoyl)piperidin-4-yl]oxy}-N-(imidazo[1,2-a]pyridin-6-ylmethyl)benzamide] |
